{
  "source": "ChEMBL document CHEMBL3045915",
  "about": "“Microwave-assisted, one-pot syntheses and fungicidal activity of polyfluorinated 2-benzylthiobenzothiazoles” (2006)",
  "type_in_all_cases": "functional",
  "key": {"[1]": {"tested_on": "Rhizoctonia solani", "assay": "Fungicidal activity against Rhizoctonia solani assessed as inhibition of fungal growth at 50 ug/ml after 48 hr"}, "[2]": {"tested_on": "Dothiorella gregaria", "assay": "Fungicidal activity against Dothiorella gregaria assessed as inhibition of fungal growth at 50 ug/ml after 48 hr"}, "[3]": {"tested_on": "Colletotrichum gossypii", "assay": "Fungicidal activity against Colletotrichum gossypii assessed as inhibition of fungal growth at 50 ug/ml after 48 hr"}, "[4]": {"tested_on": "Botrytis cinerea", "assay": "Fungicidal activity against Botryotinia fuckeliana Pers assessed as inhibition of fungal growth at 50 ug/ml after 48 hr"}},
  "data": [
    {"molecule": "Fc1cccc(F)c1CSc1nc2c(F)cccc2s1", "values": [
      {"measurement": "inhibition at 50 µg/mL", "setting": "[1]", "value": 74, "unit": "%"},
      {"measurement": "inhibition at 50 µg/mL", "setting": "[2]", "value": 63, "unit": "%"},
      {"measurement": "inhibition at 50 µg/mL", "setting": "[3]", "value": 52, "unit": "%"},
      {"measurement": "inhibition at 50 µg/mL", "setting": "[4]", "value": 78, "unit": "%"}
    ]},
    {"molecule": "Fc1ccc2sc(SCc3c(F)cccc3F)nc2c1", "values": [
      {"measurement": "inhibition at 50 µg/mL", "setting": "[1]", "value": 80, "unit": "%"},
      {"measurement": "inhibition at 50 µg/mL", "setting": "[2]", "value": 74, "unit": "%"},
      {"measurement": "inhibition at 50 µg/mL", "setting": "[3]", "value": 56, "unit": "%"},
      {"measurement": "inhibition at 50 µg/mL", "setting": "[4]", "value": 78, "unit": "%"}
    ]},
    {"molecule": "Fc1ccccc1CSc1nc2c(Cl)cc(C(F)(F)F)cc2s1", "values": [
      {"measurement": "inhibition at 50 µg/mL", "setting": "[1]", "value": 83, "unit": "%"},
      {"measurement": "inhibition at 50 µg/mL", "setting": "[2]", "value": 70, "unit": "%"},
      {"measurement": "inhibition at 50 µg/mL", "setting": "[3]", "value": 70, "unit": "%"},
      {"measurement": "inhibition at 50 µg/mL", "setting": "[4]", "value": 83, "unit": "%"}
    ]},
    {"molecule": "Fc1cccc(F)c1CSc1nc2ccc(F)c(F)c2s1", "values": [
      {"measurement": "inhibition at 50 µg/mL", "setting": "[1]", "value": 82, "unit": "%"},
      {"measurement": "inhibition at 50 µg/mL", "setting": "[2]", "value": 81, "unit": "%"},
      {"measurement": "inhibition at 50 µg/mL", "setting": "[3]", "value": 63, "unit": "%"},
      {"measurement": "inhibition at 50 µg/mL", "setting": "[4]", "value": 69, "unit": "%"}
    ]},
    {"molecule": "Fc1ccc(CSc2nc3c(Cl)cc(C(F)(F)F)cc3s2)cc1F", "values": [
      {"measurement": "inhibition at 50 µg/mL", "setting": "[1]", "value": 40, "unit": "%"},
      {"measurement": "inhibition at 50 µg/mL", "setting": "[2]", "value": 35, "unit": "%"},
      {"measurement": "inhibition at 50 µg/mL", "setting": "[3]", "value": 37, "unit": "%"},
      {"measurement": "inhibition at 50 µg/mL", "setting": "[4]", "value": 67, "unit": "%"}
    ]},
    {"molecule": "Fc1ccc2sc(SCc3ccc(F)c(F)c3)nc2c1", "values": [
      {"measurement": "inhibition at 50 µg/mL", "setting": "[1]", "value": 86, "unit": "%"},
      {"measurement": "inhibition at 50 µg/mL", "setting": "[2]", "value": 78, "unit": "%"},
      {"measurement": "inhibition at 50 µg/mL", "setting": "[3]", "value": 74, "unit": "%"},
      {"measurement": "inhibition at 50 µg/mL", "setting": "[4]", "value": 69, "unit": "%"}
    ]},
    {"molecule": "Fc1ccc2sc(SCc3ccccc3F)nc2c1", "values": [
      {"measurement": "inhibition at 50 µg/mL", "setting": "[1]", "value": 82, "unit": "%"},
      {"measurement": "inhibition at 50 µg/mL", "setting": "[2]", "value": 81, "unit": "%"},
      {"measurement": "inhibition at 50 µg/mL", "setting": "[3]", "value": 67, "unit": "%"},
      {"measurement": "inhibition at 50 µg/mL", "setting": "[4]", "value": 83, "unit": "%"}
    ]},
    {"molecule": "Fc1ccc(CSc2nc3c(F)cccc3s2)cc1F", "values": [
      {"measurement": "inhibition at 50 µg/mL", "setting": "[1]", "value": 92, "unit": "%"},
      {"measurement": "inhibition at 50 µg/mL", "setting": "[2]", "value": 89, "unit": "%"},
      {"measurement": "inhibition at 50 µg/mL", "setting": "[3]", "value": 78, "unit": "%"},
      {"measurement": "inhibition at 50 µg/mL", "setting": "[4]", "value": 97, "unit": "%"}
    ]},
    {"molecule": "CC(C)(C)C(=O)C(Oc1ccc(Cl)cc1)n1cncn1", "note": "(configuration not stated) [TRIADIMEFON]", "values": [
      {"measurement": "inhibition at 50 µg/mL", "setting": "[1]", "value": 90, "unit": "%"},
      {"measurement": "inhibition at 50 µg/mL", "setting": "[2]", "value": 61, "unit": "%"},
      {"measurement": "inhibition at 50 µg/mL", "setting": "[3]", "value": 95, "unit": "%"},
      {"measurement": "inhibition at 50 µg/mL", "setting": "[4]", "value": 84, "unit": "%"}
    ]},
    {"molecule": "Fc1ccc(CSc2nc3ccc(F)c(F)c3s2)cc1F", "values": [
      {"measurement": "inhibition at 50 µg/mL", "setting": "[1]", "value": 85, "unit": "%"},
      {"measurement": "inhibition at 50 µg/mL", "setting": "[2]", "value": 85, "unit": "%"},
      {"measurement": "inhibition at 50 µg/mL", "setting": "[3]", "value": 80, "unit": "%"},
      {"measurement": "inhibition at 50 µg/mL", "setting": "[4]", "value": 72, "unit": "%"}
    ]},
    {"molecule": "Fc1ccccc1CSc1nc2c(F)cccc2s1", "values": [
      {"measurement": "inhibition at 50 µg/mL", "setting": "[1]", "value": 82, "unit": "%"},
      {"measurement": "inhibition at 50 µg/mL", "setting": "[2]", "value": 78, "unit": "%"},
      {"measurement": "inhibition at 50 µg/mL", "setting": "[3]", "value": 67, "unit": "%"},
      {"measurement": "inhibition at 50 µg/mL", "setting": "[4]", "value": 81, "unit": "%"}
    ]},
    {"molecule": "Fc1ccccc1CSc1nc2ccc(F)c(F)c2s1", "values": [
      {"measurement": "inhibition at 50 µg/mL", "setting": "[1]", "value": 84, "unit": "%"},
      {"measurement": "inhibition at 50 µg/mL", "setting": "[2]", "value": 81, "unit": "%"},
      {"measurement": "inhibition at 50 µg/mL", "setting": "[3]", "value": 74, "unit": "%"},
      {"measurement": "inhibition at 50 µg/mL", "setting": "[4]", "value": 86, "unit": "%"}
    ]},
    {"molecule": "Fc1cccc(F)c1CSc1nc2c(Cl)cc(C(F)(F)F)cc2s1", "values": [
      {"measurement": "inhibition at 50 µg/mL", "setting": "[1]", "value": 69, "unit": "%"},
      {"measurement": "inhibition at 50 µg/mL", "setting": "[2]", "value": 62, "unit": "%"},
      {"measurement": "inhibition at 50 µg/mL", "setting": "[3]", "value": 44, "unit": "%"},
      {"measurement": "inhibition at 50 µg/mL", "setting": "[4]", "value": 67, "unit": "%"}
    ]}
  ]
}
